Data as given in ChEMBL document CHEMBL1201862, “PubChem BioAssay data set” (2004).
Calls of active or inactive are those of the source.

What was measured:
[1] = biological target: Lysosomal acid glucosylceramidase (Homo sapiens, UniProt P04062); test: Dose response cell-based high throughput screening assay to identify enhancers of beta-glucosidase activity. [Related pubchem assays: 784 ]; format: functional
[2] = HEp-2 cell cytotoxicity, dose response, cytotoxicity control for RSV inhibitor project, HTS (AID 2410); format: functional; settings: human respiratory syncytial virus
[3] = biological target: T1, Leucine aminopeptidase (Plasmodium falciparum 3D7, UniProt Q8IL11); test: P. falciparum M17LAP inhibitors, primary screen, biochemical, fluorogenic H-Leu-NHMec substrate, 1536-well (AID 1619); format: functional
T1 sequence (Q8IL11 whole entry): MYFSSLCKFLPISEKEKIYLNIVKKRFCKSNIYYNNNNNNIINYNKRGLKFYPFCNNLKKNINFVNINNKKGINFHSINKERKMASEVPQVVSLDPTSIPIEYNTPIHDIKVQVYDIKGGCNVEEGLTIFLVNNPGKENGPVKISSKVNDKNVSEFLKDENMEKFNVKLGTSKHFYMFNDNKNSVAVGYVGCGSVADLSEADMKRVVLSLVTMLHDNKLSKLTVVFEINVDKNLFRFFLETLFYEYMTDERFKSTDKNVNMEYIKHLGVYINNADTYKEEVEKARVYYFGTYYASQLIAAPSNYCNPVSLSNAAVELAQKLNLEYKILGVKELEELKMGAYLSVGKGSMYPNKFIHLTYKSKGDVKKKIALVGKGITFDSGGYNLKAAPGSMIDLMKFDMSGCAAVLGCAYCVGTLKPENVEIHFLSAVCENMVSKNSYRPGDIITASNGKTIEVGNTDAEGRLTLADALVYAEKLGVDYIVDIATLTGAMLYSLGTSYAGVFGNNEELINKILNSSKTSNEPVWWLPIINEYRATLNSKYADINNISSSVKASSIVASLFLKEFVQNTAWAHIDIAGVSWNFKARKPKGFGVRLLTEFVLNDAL

[4] = biological target: T2, Mannose-6-phosphate isomerase (Homo sapiens, UniProt P34949); test: inhibitors of human PMI, primary screen, biochemical, fluorescence intensity, coupled assay (AID 1209)
T2 sequence (P34949 whole entry): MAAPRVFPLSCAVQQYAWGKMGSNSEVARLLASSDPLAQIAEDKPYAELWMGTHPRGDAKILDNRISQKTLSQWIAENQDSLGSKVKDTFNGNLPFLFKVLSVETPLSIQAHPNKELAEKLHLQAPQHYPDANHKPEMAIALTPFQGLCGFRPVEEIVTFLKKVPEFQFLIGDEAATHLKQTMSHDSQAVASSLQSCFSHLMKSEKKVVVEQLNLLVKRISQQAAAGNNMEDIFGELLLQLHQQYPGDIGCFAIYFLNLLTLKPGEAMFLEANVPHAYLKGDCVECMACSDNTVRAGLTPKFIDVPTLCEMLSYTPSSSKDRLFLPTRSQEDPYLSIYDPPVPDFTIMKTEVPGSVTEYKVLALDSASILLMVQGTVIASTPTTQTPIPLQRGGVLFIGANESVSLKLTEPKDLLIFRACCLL

[5] = cells
[6] = tested on: HEK293; test: cells; settings: Homo sapiens
[7] = inhibitors of PGC1a acetylation in cells, dose response, cell-based, cherry-picked samples (AID 720514); format: functional;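 note: potency may reflect raised or lowered acetylation signal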
[8] = tested on: INS1; test: beta cell apoptosis inhibitors, cytokine rescue, dose response, luminescence, retest (AID 449756); format: functional, cell-based; settings: Rattus norvegicus;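 note: cell death triggered by IL-1 beta plus TNF-alpha plus IFN-gamma mixture; protective hits raise ATP signal compared with cytokine alone wells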
[9] = HEK293 cell cytotoxicity, dose response, cytotoxicity control, plate reader, cherry-picked samples (AID 743446); format: functional, cell-based
[10] = MC4R antagonists, dose response, counter-screen for LGR2 antagonist project, cell-based, plate reader, cherry pick (AID 743444); format: functional;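 note: transfected HEK 293 cells stimulated with alpha-MSH peptide; potency of inhibitors of the alpha-MSH evoked signal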
[11] = HepG2 cell cytotoxicity, dose response, cytotoxicity control, plate reader, cherry-pick, antagonist series (AID 743416); format: functional, cell-based
[12] = LGR2 antagonists, dose response, cell-based, HEK293, CRE-luciferase reporter, cherry pick, set 2 (AID 743343); format: functional;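 note: transfected cells were stimulated with diluted bursicon conditioned medium after compound addition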
[13] = tested on: HEK293; test: cells; settings: Homo sapiens; remark: listed apart in the source
[14] = THP-1 cell cytotoxicity, dose response, cytotoxicity control for Vif-APOBEC3G degradation inhibitor project, THP-1 cells (AID 1117359); format: functional; settings: Human immunodeficiency virus 1, THP-1
[15] = microbe, parasite or virus in culture; format: functional; settings: Mycobacterium tuberculosis
[16] = cytotoxicity in MIN6 insulinoma cells, dose response, cytotoxicity control, cell-based, mouse insulinoma (AID 2122); format: functional;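 note: confirmatory high-throughput counterscreen run to flag cytotoxic compounds; mouse MIN-6 beta cells carrying an insulin promoter eGFP reporter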
[17] = biological target: FAD-linked sulfhydryl oxidase ALR (Homo sapiens, UniProt P55789); test: inhibitors of human ALR sulfhydryl oxidase, dose response, biochemical, H2O2 detection, luminescence, cherry-pick (AID 493248)
[18] = insulin promoter down-regulators in MIN6 cells, imaging, high-content screening, mouse beta cells (AID 1628); format: functional
[19] = biological target: Protein Rev (Human immunodeficiency virus type 1 group M subtype B (isolate WMJ22)(HIV-1), UniProt P05866); test: HIV-1 Rev-RRE RNA binding disruptors, dose response, biochemical, protein-RNA interaction (AID 842); set-up: species or system Human immunodeficiency virus 1
[20] = biological target: T3, Estrogen receptor beta (Homo sapiens, UniProt Q92731); test: ERβ–SRC-3 coactivator interaction inhibitors, confirmation, orthogonal assay, biochemical, ELISA, streptavidin-HRP readout (AID 1060)
[21] = biological target: T3, Estrogen receptor beta
[22] = biological target: T4, Estrogen receptor (Homo sapiens, UniProt P03372);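 note: potency for inhibiting coactivator peptide recruitment to the receptor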
T4 sequence (P03372 whole entry): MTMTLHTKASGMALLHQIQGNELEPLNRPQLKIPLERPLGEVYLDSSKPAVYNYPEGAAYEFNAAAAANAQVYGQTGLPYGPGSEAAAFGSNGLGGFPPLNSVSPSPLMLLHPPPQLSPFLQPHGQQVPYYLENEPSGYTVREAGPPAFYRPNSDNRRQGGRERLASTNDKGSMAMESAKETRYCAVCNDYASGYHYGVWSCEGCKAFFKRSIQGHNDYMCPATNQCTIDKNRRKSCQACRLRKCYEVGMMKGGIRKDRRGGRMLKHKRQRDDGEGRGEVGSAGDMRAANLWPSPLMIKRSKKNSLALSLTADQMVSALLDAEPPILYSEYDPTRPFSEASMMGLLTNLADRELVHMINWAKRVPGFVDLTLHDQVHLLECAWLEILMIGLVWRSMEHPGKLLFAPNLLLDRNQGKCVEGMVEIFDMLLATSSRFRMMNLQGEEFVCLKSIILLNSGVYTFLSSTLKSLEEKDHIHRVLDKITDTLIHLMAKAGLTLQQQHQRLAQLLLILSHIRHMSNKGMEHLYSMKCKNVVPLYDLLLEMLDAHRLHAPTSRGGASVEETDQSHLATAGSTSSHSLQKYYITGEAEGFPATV

[23] = inhibitors of firefly luciferase expression or activity, dose response, H4 neuroglioma cells, luminescence (AID 1990); format: functional, cell-based
[24] = inhibitors of SNCA 5'UTR-driven translation, confirmation, luminescence, H4 neuroglioblastoma cells, dose confirmation (AID 2454); format: functional, cell-based;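 note: H4 neuroglioblastoma cells carrying an alpha-synuclein 5'UTR luciferase reporter; potency for inhibition of the luciferase signal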
[25] = inhibitors of SNCA 5'UTR-driven reporter translation, confirmation, H4 neuroglioma cells, luminescence (AID 1988); format: functional, cell-based
[26] = luciferase reporter signal reduction – luminescence, H4-C neuroglioblastoma cells, dose response (AID 2458); format: functional, cell-based;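 note: H4 neuroglioblastoma cells stably carrying a luciferase reporter gene fusion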
[27] = biological target: T5, Luciferin 4-monooxygenase (Photinus pyralis, UniProt P08659); test: firefly luciferase enzyme inhibitors, dose response, biochemical, luminescence (AID 1891)
[28] = Luminescence Cell-Based Dose Confirmation HTS to Identify Inhibitors of Platelet Dense Granule Release. [Related pubchem assays: 1663 (Primary HTS), 1678 (Summary of Project)]; format: functional
[29] = cells; format: functional, cell-based
[30] = biological target: T6, Heat shock 70 kDa protein 1A (Homo sapiens, UniProt P0DMV8); test: Hsp70 inhibitors, probe displacement, primary screen, biochemical, fluorescence polarization (AID 583)
[31] = biological target: T6, Heat shock 70 kDa protein 1A; test: Hsp70 inhibitors, biochemical, TR-FRET (AID 786)
[32] = tested on: HT-1080; test: cytotoxicity in HT1080 fibrosarcoma cells, cell-based, fluorescence readout (AID 620); format: functional; settings: Homo sapiens
[33] = biological target: T5, Luciferin 4-monooxygenase; test: Counter Screen for Luciferase-based Assay Positives. [Related pubchem assays: 620, 618, 411 ]

T6 sequence (P0DMV8 whole entry): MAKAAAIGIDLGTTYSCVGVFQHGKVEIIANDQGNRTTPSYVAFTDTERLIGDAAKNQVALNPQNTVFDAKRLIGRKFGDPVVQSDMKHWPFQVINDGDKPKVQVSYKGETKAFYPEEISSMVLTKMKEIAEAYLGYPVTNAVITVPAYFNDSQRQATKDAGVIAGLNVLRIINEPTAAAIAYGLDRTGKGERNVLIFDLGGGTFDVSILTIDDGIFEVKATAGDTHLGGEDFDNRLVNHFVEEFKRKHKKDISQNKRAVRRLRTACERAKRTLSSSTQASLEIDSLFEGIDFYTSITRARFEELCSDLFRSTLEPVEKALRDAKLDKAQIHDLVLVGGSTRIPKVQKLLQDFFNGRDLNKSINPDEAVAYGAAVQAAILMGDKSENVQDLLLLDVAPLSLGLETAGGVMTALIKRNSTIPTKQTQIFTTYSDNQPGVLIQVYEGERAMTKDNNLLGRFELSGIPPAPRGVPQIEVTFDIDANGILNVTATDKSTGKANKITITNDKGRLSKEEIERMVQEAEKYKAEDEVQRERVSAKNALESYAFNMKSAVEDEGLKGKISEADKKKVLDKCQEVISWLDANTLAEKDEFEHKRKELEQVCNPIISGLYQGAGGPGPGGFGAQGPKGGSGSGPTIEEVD
T3 sequence (Q92731 whole entry): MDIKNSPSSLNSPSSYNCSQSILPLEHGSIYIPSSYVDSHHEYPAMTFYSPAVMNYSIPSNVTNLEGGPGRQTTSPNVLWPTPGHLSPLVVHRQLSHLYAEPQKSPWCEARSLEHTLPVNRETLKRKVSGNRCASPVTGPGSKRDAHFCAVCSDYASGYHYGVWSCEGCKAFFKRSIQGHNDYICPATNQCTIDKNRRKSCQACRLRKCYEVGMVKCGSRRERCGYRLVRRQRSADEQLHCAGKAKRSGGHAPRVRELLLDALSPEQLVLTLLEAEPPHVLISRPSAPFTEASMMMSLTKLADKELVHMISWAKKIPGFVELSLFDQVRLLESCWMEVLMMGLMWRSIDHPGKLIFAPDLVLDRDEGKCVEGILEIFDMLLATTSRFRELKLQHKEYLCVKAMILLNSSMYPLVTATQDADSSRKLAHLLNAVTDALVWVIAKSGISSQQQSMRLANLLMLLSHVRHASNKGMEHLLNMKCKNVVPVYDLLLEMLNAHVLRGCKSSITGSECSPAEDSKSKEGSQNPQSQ
T5 sequence (P08659 whole entry): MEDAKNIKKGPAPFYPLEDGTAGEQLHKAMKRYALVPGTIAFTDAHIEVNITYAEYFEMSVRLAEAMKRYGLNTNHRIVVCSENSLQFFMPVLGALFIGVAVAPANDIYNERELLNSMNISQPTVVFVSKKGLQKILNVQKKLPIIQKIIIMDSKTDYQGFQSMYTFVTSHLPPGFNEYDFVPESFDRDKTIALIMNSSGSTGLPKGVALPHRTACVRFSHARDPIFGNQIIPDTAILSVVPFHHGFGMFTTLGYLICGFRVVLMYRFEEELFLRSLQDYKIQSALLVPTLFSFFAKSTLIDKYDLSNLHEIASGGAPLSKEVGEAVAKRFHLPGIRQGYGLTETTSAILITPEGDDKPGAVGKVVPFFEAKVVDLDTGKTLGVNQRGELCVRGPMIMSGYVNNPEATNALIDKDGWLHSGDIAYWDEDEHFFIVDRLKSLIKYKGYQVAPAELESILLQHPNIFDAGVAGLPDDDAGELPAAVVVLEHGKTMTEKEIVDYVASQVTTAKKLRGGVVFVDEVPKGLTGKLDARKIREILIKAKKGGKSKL
Sequence of FAD-linked sulfhydryl oxidase ALR (P55789 whole entry): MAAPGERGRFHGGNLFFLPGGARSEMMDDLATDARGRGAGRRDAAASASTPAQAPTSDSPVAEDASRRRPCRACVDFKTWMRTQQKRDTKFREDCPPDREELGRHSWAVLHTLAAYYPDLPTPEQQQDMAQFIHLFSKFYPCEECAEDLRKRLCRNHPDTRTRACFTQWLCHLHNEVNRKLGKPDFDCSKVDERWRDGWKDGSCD
Sequence of Lysosomal acid glucosylceramidase (P04062 whole entry): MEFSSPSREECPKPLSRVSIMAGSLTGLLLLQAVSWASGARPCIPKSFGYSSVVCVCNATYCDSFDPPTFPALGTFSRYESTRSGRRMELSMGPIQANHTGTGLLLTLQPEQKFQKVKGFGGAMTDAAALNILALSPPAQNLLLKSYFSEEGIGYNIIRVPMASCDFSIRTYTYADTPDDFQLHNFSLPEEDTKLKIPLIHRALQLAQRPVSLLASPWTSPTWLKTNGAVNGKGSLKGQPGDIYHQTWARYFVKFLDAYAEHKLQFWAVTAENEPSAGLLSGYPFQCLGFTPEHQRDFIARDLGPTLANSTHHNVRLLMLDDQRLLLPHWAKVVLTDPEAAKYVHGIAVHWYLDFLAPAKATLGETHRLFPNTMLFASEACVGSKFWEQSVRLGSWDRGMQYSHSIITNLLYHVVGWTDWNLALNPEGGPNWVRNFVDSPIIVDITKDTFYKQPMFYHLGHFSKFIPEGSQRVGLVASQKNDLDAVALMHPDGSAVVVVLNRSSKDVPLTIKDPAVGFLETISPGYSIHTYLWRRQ
Sequence of Protein Rev (P05866 whole entry): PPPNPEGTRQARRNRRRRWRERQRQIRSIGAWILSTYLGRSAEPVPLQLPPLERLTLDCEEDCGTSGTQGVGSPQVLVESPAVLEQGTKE

O=c1cccc2n1CC1CC2CN(Cc2cccc(Cl)c2Cl)C1 (stereo unspecified)
EC50 [1]: > 50 µM (not active)
CC50 [2]: 23.1 µM (active)

CC(=O)NNC(=S)NC(=O)c1cccc([N+](=O)[O-])c1
IC50 [3]: 45.8 µM (active)
IC50 [4]: > 50 µM (not active)

Cc1ccc(/C=N\NC(=O)C2CN(S(=O)(=O)c3ccccc3)CCN2S(=O)(=O)c2ccccc2)cc1 (stereo unspecified)
IC50 [5]: 13.6 µM (active)

O=C(Cn1ncc(Cl)c(Cl)c1=O)c1ccc2c(c1)OCCO2
EC50 [6]: > 59.5 µM (inactive)
AC50 [7]: 15.4 µM (active)
AC50 [8]: > 120 µM (inactive)
AC50 [9]: 17 µM (active)
AC50 [10]: 36.5 µM (active)
AC50 [11]: 21.3 µM (active)
AC50 [12]: 28.4 µM (active)
EC50 [13]: > 59.5 µM (inactive)
CC50 [14]: 9.67 µM (active)
CC50 [15]: 13.8 µM (active)

C[n+]1c2n(c3ccccc31)N=C(c1ccc(Cl)cc1)CS2
AC50 [8]: 4.54 µM (active)
IC50 [16]: 1.49 µM (active)
AC50 [17]: 0.425 µM (active)
IC50 [18]: 2.51 µM (active)
IC50 [19]: > 79.4 µM (not active)

CCOc1ccc(NC2=NC(=O)S/C2=C\c2ccc(OC)cc2)cc1
IC50 [20]: 99.9 µM (not active)
IC50 [21]: > 50 µM (not active)
IC50 [22]: 18.8 µM (active)

CCN(CC)c1ccc(C2=NNC(=O)CC2C)cc1[N+](=O)[O-] (stereo unspecified)
EC50 [23]: < 0.1 µM (active)
EC50 [24]: 0.123 µM (active)
EC50 [25]: < 0.1 µM (active)
EC50 [26]: 0.05 µM (active)
EC50 [27]: > 112 µM (not active)
EC50 [28]: 0.504 µM (active)
EC50 [29]: 0.194 µM (active)

CCn1nccc1C(=O)Nc1ccc(Cl)cn1
IC50 [30]: > 100 µM (not active)
IC50 [31]: > 100 µM (not active)

CCOC(=O)CNC(=O)CNC(=O)Cn1ccc2ccccc2c1=O
IC50 [30]: > 100 µM (not active)
IC50 [31]: > 100 µM (not active)

Cc1cnc(NC(=O)C2COc3ccccc3O2)s1 (stereo unspecified)
EC50 [32]: > 50 µM (not active)
EC50 [33]: 1.95 µM (active)
